This is an account of results in patent US10239831B2, “Method for producing bis(3-aminophenyl)disulfides and 3-aminothiols” (BAYER CROPSCIENCE AG, priority 2012, dated 2019).

This series is described as follows: log P determination. The series is classed as physicochemical. The following applies: for chromatographic logP: HCOOH (acidic); for logP: neutral.

`Nc1cc(SSc2cc(N)c(Cl)cc2Cl)c(Cl)cc1Cl` [Example 14, 3,3′-Disulphanediylbis(4,6-dichloroaniline)] registered a chromatographic logP of 5.14 and a log partition coefficient (logP) of 4.95.

On to `O=[N+]([O-])c1cc(SSc2cc([N+](=O)[O-])c(Cl)cc2Cl)c(Cl)cc1Cl` [Example 5, 1,1′-Disulphanediylbis(2,4-dichloro-5-nitrobenzene)], for which the chromatographic logP came out at 5.69 and the logP came to 5.64.

For orientation: chromatographic logP means lipophilicity estimated from chromatographic retention. Usually logP stands for the decadic logarithm of the partition coefficient of the neutral form, usually between octanol and water. The low end stands for a more hydrophilic compound, the high end for a more lipophilic compound.
